Residues, ends and D or L forms follow the SMILES beside them. No end group written: not given here. *: point of attachment. Cbz = O=C(OCc1ccccc1)*; CH2F = FC*
Experiments:
human Beclin1 = experiment: Beclin1 siRNA knockdown in BCBL1 cells; format: cell-based
Method: (§1) All siRNAs were produced by Dharmacon Research. siRNAs specific for human Beclin1 (5′[…]3′) and a nonspecific scrambled control siRNA were transfected using DharmaFect reagent (Dharmacon) according to the manufacturer's instructions. At 48-72 hr post-transfection, cells were analyzed for autophagy. Trypan blue staining and a Beckman Coulter Z2 Particle Count and Size analyzer were used to determine cell death (as a percentage) at day 5.

[1] = test system: KSHV-infected BCBL1 cells; experiment: Rapamycin- or zVAD-induced growth suppression and autophagic death; format: cell-based
Method: The effect of vFLIP on autophagy was tested in a KSHV-infected BCBL1 cell line. TREX-BCBL-Vector and TREX-BCBL-vFLIP cells were treated with rapamycin or left untreated for 6 days in the presence of doxycycline and subjected to scanning EM, to examine the morphologies of over 100 dead cells and quantify cell death for apoptosis and autophagic death, or subjected to PI staining and cell cycle analysis.
as §1

Atg3 = target: T1, Atg3 (Homo sapiens, UniProt Q9NT62); experiment: GST pulldown of KSHV vFLIP α-helix fragments and deletion mutants; format: binding; conditions: GST fusions or deletion mutants in HEK293T
T1 construct: GFP (alternative construct GFP-Atg3, not on the same molecule as GST); expressed in transfected cells; host or cells: HEK293T
T1 sequence (Q9NT62 whole entry, the tested form may be a part): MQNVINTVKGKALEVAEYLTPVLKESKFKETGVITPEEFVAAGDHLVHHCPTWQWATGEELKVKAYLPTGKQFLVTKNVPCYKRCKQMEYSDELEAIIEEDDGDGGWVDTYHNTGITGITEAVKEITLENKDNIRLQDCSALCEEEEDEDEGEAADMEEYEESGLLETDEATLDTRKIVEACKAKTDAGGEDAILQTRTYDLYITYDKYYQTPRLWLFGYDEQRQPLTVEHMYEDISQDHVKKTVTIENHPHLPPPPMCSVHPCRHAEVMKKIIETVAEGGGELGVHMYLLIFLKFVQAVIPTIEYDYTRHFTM
From the text: Due to the substantial similarities between DEDI and DED2, Atg3 bound each DED of KSHV vFLIP with a similar affinity. Structural analyses have shown that the DED1 and DED2 of KSHV vFLIP and MCV 159L contain six and five α-helixes, respectively. (Yang et al. (2005) Mol. Cell. 20:939-949); Bagneris et al. (2008) Mol. Cell. 30:620-631). To further define the Atg3 binding sequences, each DED of KSHV vFLIP was divided into small α-helix fragments based on the previous structural analysis and expressed as mammalian GST fusions. Truncated mutant constructs of KSHV-vFLIP and hATG3 were created by subcloning the PCR products of cDNA fragments containing each domain of the associated genes into pcDNA5/FRT/TO. HEK293T cells were transfected with mutant constructs for GST pulldown as described above, followed by immunoblotting with αV5. […] In contrast, vFLIP mutants carrying a loss of 14-3-3σ, IKKαβγ complex, or FADD interaction bound Atg3 and blocked rapamycin-induced autophagy as efficiently as wild-type vFLIP.

5′AAGAUCCUGGACCGUGUCACC3′ [Beclin1 siRNA]
endogenous Beclin1 expression (human Beclin1): significantly reduced endogenous Beclin1 expression | effect on rapamycin-induced autophagic death (human Beclin1; cell death at day 5): attenuated rapamycin-induced autophagic death

COC(=O)CC(NC(=O)C(C)NC(=O)C(NC(=O)OCc1ccccc1)C(C)C)C(=O)CF (stereo not drawn) [zVAD, benzyloxycarbonylvalyl-alanyl-aspartic acid (O-methyl)-fluoro-methylketone] (Cbz-Val-Ala-Asp(OMe)-CH2F; configuration not given here)
growth suppression and cell death ([1]; BCBL1 cells): effectively induced growth suppression and death of BCBL1 cells

EVVLFLLNVF (also: GST fusion) [DED1α2 helix, α2 region of KSHV vFLIP aa 20-29, tested as mammalian GST fusion]
Atg3 binding (GST pulldown) (Atg3): individually sufficient for Atg3 binding

CO[C@H]1C[C@@H]2CC[C@@H](C)[C@@](O)(O2)C(=O)C(=O)N2CCCC[C@H]2C(=O)O[C@H]([C@H](C)C[C@@H]2CC[C@@H](O)[C@H](OC)C2)CC(=O)[C@H](C)/C=C(\C)[C@@H](O)[C@@H](OC)C(=O)[C@H](C)C[C@H](C)/C=C/C=C/C=C/1C [rapamycin]
dead cells with features characteristic of autophagic death (EM) ([1]; rapamycin, 6 days, over 100 dead cells examined): approximately 60%

From patent US20130316958A1 (University of Southern California, priority 2010, published 2013)
